Experimental data reported in PubChem BioAssay (NCI).
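Results reflect a 48-hour exposure of cells in 96-well plates to compound at five concentrations. Here, GI50 denotes the concentration required for 50% inhibition of growth. TGI denotes the concentration required for complete inhibition of growth.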

Tests used:
Assay in all cases: DTP human tumour cell line panel, 48 h
ACHN renal = test system: ACHN renal
HL-60(TB) leukemia = test system: HL-60(TB) leukemia
HOP-62 NSCLC = test system: HOP-62 NSCLC
HS 578T breast = test system: HS 578T breast
MOLT-4 leukemia = test system: MOLT-4 leukemia
SNB-19 CNS = test system: SNB-19 CNS
UACC-257 melanoma = test system: UACC-257 melanoma
UO-31 renal = test system: UO-31 renal

CCCCCc1cc(CCCC)sc1-c1ccco1
TGI (ACHN renal): > 100 µM | TGI (HL-60(TB) leukemia): 58.8 µM | TGI (HOP-62 NSCLC): > 100 µM | TGI (HS 578T breast): > 100 µM | TGI (MOLT-4 leukemia): > 100 µM | TGI (SNB-19 CNS): > 100 µM | TGI (UACC-257 melanoma): > 100 µM | TGI (UO-31 renal): > 100 µM

C[N+]1(CCCCN2c3ccccc3Sc3cc(N=[N+]=[N-])ccc32)CCN(C(=O)CCNC(=O)Cc2ccc(C(=O)c3ccccc3)cc2)CC1
TGI (ACHN renal): 37.2 µM | TGI (HL-60(TB) leukemia): 35.5 µM | TGI (HOP-62 NSCLC): 44.9 µM | TGI (HS 578T breast): > 83.1 µM | TGI (MOLT-4 leukemia): > 76.8 µM | TGI (SNB-19 CNS): 66.7 µM | TGI (UACC-257 melanoma): > 75.8 µM | TGI (UO-31 renal): 39 µM

O=C(O)C12C3C4(C(=O)O)C1C1(C(=O)O)C2C3(C(=O)O)C41 (stereo not given)
TGI (ACHN renal): > 100 µM | TGI (HL-60(TB) leukemia): > 100 µM | TGI (HOP-62 NSCLC): > 100 µM | TGI (HS 578T breast): > 100 µM | TGI (MOLT-4 leukemia): > 100 µM | TGI (SNB-19 CNS): > 100 µM | TGI (UACC-257 melanoma): > 100 µM | TGI (UO-31 renal): > 100 µM

CN(C)CN1C(=O)/C(=N\n2c(-c3ccncc3)n[nH]c2=S)c2ccccc21
TGI (ACHN renal): > 100 µM | TGI (HL-60(TB) leukemia): 37 µM | TGI (HOP-62 NSCLC): 84.7 µM | TGI (HS 578T breast): > 100 µM | TGI (MOLT-4 leukemia): 45.4 µM | TGI (SNB-19 CNS): > 100 µM | TGI (UACC-257 melanoma): 32.9 µM | TGI (UO-31 renal): 57 µM

O=C(O)Cn1c[n+](NC(=O)Cc2ccccc2)cn1
TGI (ACHN renal): > 10 µM | TGI (HOP-62 NSCLC): > 10 µM | TGI (HS 578T breast): > 10 µM | TGI (MOLT-4 leukemia): > 10 µM | TGI (SNB-19 CNS): > 10 µM | TGI (UACC-257 melanoma): > 10 µM | TGI (UO-31 renal): > 10 µM

CC1=CC(O)CC(C)(C)C1/C=C/C(C)=C/C=C/C(C)=C/C=C/C=C(C)/C=C/C=C(C)/C=C/C1=C(C)CC(O)CC1(C)C (stereo not given)
TGI (ACHN renal): 31.1 µM | TGI (HL-60(TB) leukemia): > 100 µM | TGI (HS 578T breast): > 100 µM | TGI (MOLT-4 leukemia): > 100 µM | TGI (SNB-19 CNS): > 100 µM | TGI (UACC-257 melanoma): 59.1 µM | TGI (UO-31 renal): > 100 µM

COC(=O)Cc1c2n(c3ccccc13)C(=O)N1c3ccccc3C(CC(=O)OC)C21 (stereo not given)
TGI (ACHN renal): > 100 µM | TGI (HL-60(TB) leukemia): > 100 µM | TGI (HOP-62 NSCLC): 38.5 µM | TGI (HS 578T breast): > 100 µM | TGI (MOLT-4 leukemia): > 100 µM | TGI (SNB-19 CNS): 49.8 µM | TGI (UACC-257 melanoma): > 100 µM | TGI (UO-31 renal): > 100 µM

O=C1c2c(Br)sc(Br)c2[C@H]2OC(=S)N[C@@H]12
TGI (ACHN renal): 11.1 µM | TGI (HOP-62 NSCLC): 30.7 µM | TGI (HS 578T breast): > 52.7 µM | TGI (MOLT-4 leukemia): 5 µM | TGI (SNB-19 CNS): 30 µM | TGI (UACC-257 melanoma): 17.1 µM | TGI (UO-31 renal): 3.34 µM

CC(Br)CN(CC(C)Br)c1ccc2c(c1)Cc1ccccc1-2 (stereo not given)
TGI (ACHN renal): 19.5 µM | TGI (HL-60(TB) leukemia): 15.6 µM | TGI (HOP-62 NSCLC): 23.9 µM | TGI (HS 578T breast): 41.7 µM | TGI (MOLT-4 leukemia): 34.6 µM | TGI (SNB-19 CNS): 27.9 µM | TGI (UACC-257 melanoma): 28.1 µM | TGI (UO-31 renal): 24.9 µM

O=C1c2cccnc2C(=O)c2c1nc1ccccc1c2-c1ccc2c3c(nc4ccccc42)C(=O)c2cccnc2-c13
TGI (ACHN renal): 4.1 µM | TGI (HL-60(TB) leukemia): 5.42 µM | TGI (HOP-62 NSCLC): 22.9 µM | TGI (HS 578T breast): 11.1 µM | TGI (MOLT-4 leukemia): 5.66 µM | TGI (SNB-19 CNS): 7.92 µM | TGI (UACC-257 melanoma): 5.38 µM | TGI (UO-31 renal): 4.62 µM

Oc1ccc(C[C@@H]2CN[C@H](Cc3ccc(O)c(Br)c3)CN2)cc1
TGI (ACHN renal): > 100 µM | TGI (HL-60(TB) leukemia): > 100 µM | TGI (HOP-62 NSCLC): > 100 µM | TGI (HS 578T breast): > 100 µM | TGI (MOLT-4 leukemia): > 100 µM | TGI (UACC-257 melanoma): > 100 µM | TGI (UO-31 renal): > 100 µM

CCOC(=O)C(NC(=O)CC)(Nc1ccccc1F)C(F)(F)F (stereo not given)
TGI (ACHN renal): > 100 µM | TGI (HL-60(TB) leukemia): > 100 µM | TGI (HS 578T breast): > 100 µM | TGI (MOLT-4 leukemia): > 100 µM | TGI (SNB-19 CNS): > 100 µM | TGI (UACC-257 melanoma): > 100 µM | TGI (UO-31 renal): > 100 µM

CC(C)(C)[Si](C)(C)OC1CCOC1(O)c1ccccn1 (stereo not given)
TGI (ACHN renal): > 100 µM | TGI (HL-60(TB) leukemia): > 100 µM | TGI (HOP-62 NSCLC): > 100 µM | TGI (HS 578T breast): > 100 µM | TGI (MOLT-4 leukemia): > 100 µM | TGI (SNB-19 CNS): > 100 µM | TGI (UACC-257 melanoma): > 100 µM | TGI (UO-31 renal): > 100 µM

COC(=O)c1ccc2cc(O)ccc2c1
TGI (ACHN renal): > 100 µM | TGI (HOP-62 NSCLC): > 100 µM | TGI (MOLT-4 leukemia): > 100 µM | TGI (SNB-19 CNS): > 100 µM | TGI (UACC-257 melanoma): > 100 µM | TGI (UO-31 renal): > 100 µM

Brc1ccc(/C(N=N/C(=N\Sc2ccccc2)c2ccc(Br)cc2)=N/Sc2ccccc2)cc1
TGI (ACHN renal): > 100 µM | TGI (HL-60(TB) leukemia): > 100 µM | TGI (HOP-62 NSCLC): > 100 µM | TGI (HS 578T breast): > 100 µM | TGI (MOLT-4 leukemia): > 100 µM | TGI (SNB-19 CNS): > 100 µM | TGI (UACC-257 melanoma): > 100 µM | TGI (UO-31 renal): > 100 µM

O=C(O)CCSc1ncnc2nc[nH]c12
TGI (ACHN renal): > 100 µM | TGI (HL-60(TB) leukemia): > 100 µM | TGI (HOP-62 NSCLC): > 100 µM | TGI (HS 578T breast): > 100 µM | TGI (MOLT-4 leukemia): > 100 µM | TGI (SNB-19 CNS): > 100 µM | TGI (UACC-257 melanoma): > 100 µM | TGI (UO-31 renal): > 100 µM

CC(=O)N=S(NC(=O)c1ccc(C)cc1)C(Cl)(Cl)Cl (stereo not given)
TGI (ACHN renal): > 100 µM | TGI (HL-60(TB) leukemia): 26.9 µM | TGI (HOP-62 NSCLC): > 100 µM | TGI (HS 578T breast): > 100 µM | TGI (MOLT-4 leukemia): 83.8 µM | TGI (SNB-19 CNS): > 100 µM | TGI (UACC-257 melanoma): > 100 µM | TGI (UO-31 renal): 56 µM

O=C1CCC(CCc2nc3ccccc3[nH]2)(c2ccccc2)C(=O)N1 (stereo not given)
TGI (ACHN renal): > 100 µM | TGI (HL-60(TB) leukemia): > 100 µM | TGI (HOP-62 NSCLC): > 100 µM | TGI (HS 578T breast): > 100 µM | TGI (SNB-19 CNS): > 100 µM | TGI (UACC-257 melanoma): > 100 µM | TGI (UO-31 renal): 52.1 µM

CN1C2CCC1C(CO)C(=O)C2 (stereo not given)
TGI (ACHN renal): > 100 µM | TGI (HL-60(TB) leukemia): 26.2 µM | TGI (HOP-62 NSCLC): > 100 µM | TGI (HS 578T breast): > 100 µM | TGI (MOLT-4 leukemia): 59.5 µM | TGI (UACC-257 melanoma): > 100 µM

CC1=[N+]([O-])C2(CCCC2)N(O)C1(C)C
TGI (ACHN renal): > 100 µM | TGI (HL-60(TB) leukemia): > 100 µM | TGI (HOP-62 NSCLC): > 100 µM | TGI (HS 578T breast): > 100 µM | TGI (SNB-19 CNS): > 100 µM | TGI (UACC-257 melanoma): > 100 µM | TGI (UO-31 renal): > 100 µM

COc1ccccc1Cn1c2c(c3cc(O)ccc31)C(=O)c1ccccc1C2=O
TGI (HL-60(TB) leukemia): > 100 µM | TGI (HOP-62 NSCLC): > 100 µM | TGI (HS 578T breast): > 100 µM | TGI (MOLT-4 leukemia): > 100 µM | TGI (SNB-19 CNS): > 100 µM | TGI (UACC-257 melanoma): > 100 µM | TGI (UO-31 renal): > 100 µM

CCc1ccc(OCc2ccccc2C(=O)Nc2ccc3nc(C)cc(N)c3c2)cc1
GI50 (ACHN renal): 1.73 µM | TGI (ACHN renal): 3.13 µM | GI50 (HOP-62 NSCLC): 1.77 µM | TGI (HOP-62 NSCLC): 3.31 µM | GI50 (HS 578T breast): 1.79 µM | TGI (HS 578T breast): 4.38 µM | GI50 (UACC-257 melanoma): 1.83 µM | TGI (UACC-257 melanoma): 3.37 µM | GI50 (UO-31 renal): 1.44 µM | TGI (UO-31 renal): 2.84 µM

Nc1cc2nc(-c3ccccc3)cn2cn1
TGI (ACHN renal): > 100 µM | TGI (HL-60(TB) leukemia): > 100 µM | TGI (HOP-62 NSCLC): > 100 µM | TGI (MOLT-4 leukemia): > 100 µM | TGI (SNB-19 CNS): > 100 µM | TGI (UO-31 renal): > 100 µM

Cn1c(=O)c2[nH]c(Nc3cccc(Cl)c3)nc2n(C)c1=O
TGI (HL-60(TB) leukemia): > 10 µM | TGI (HOP-62 NSCLC): > 10 µM | TGI (MOLT-4 leukemia): > 10 µM | TGI (UACC-257 melanoma): > 10 µM

C[C@@H](CCO)OC1OC(COC(=O)C(C)(C)C)C(OC(=O)C(C)(C)C)C(OC(=O)C(C)(C)C)C1OC(=O)C(C)(C)C (stereo not given in full)
TGI (ACHN renal): > 100 µM | TGI (HL-60(TB) leukemia): 62.5 µM | TGI (HOP-62 NSCLC): > 100 µM | TGI (HS 578T breast): > 100 µM | TGI (MOLT-4 leukemia): > 100 µM | TGI (SNB-19 CNS): > 100 µM | TGI (UACC-257 melanoma): > 100 µM

O=C(O[C@@H](/C=C/c1ccccc1)P1(=O)N(Cc2ccccc2)[C@@H]2CCCC[C@H]2N1Cc1ccccc1)c1ccccc1
TGI (ACHN renal): > 100 µM | TGI (HL-60(TB) leukemia): > 100 µM | TGI (HOP-62 NSCLC): > 100 µM | TGI (HS 578T breast): > 100 µM | TGI (SNB-19 CNS): > 100 µM | TGI (UACC-257 melanoma): > 100 µM | TGI (UO-31 renal): 27.4 µM
